Data from article PMC3693772, “Protein expression, biochemical pharmacology of signal transduction, and relation to intraocular pressure modulation by bradykinin B2 receptors in ciliary muscle” (Molecular Vision, 2013).

Experiments:
h-CM cells [1] = assay: PGD2 production in h-CM cells; assay type: cell-based, human; settings: with or without BK; limit of detection PGD2=200 pg/ml
Experimental: (§1) This involved stimulating h-CM cells and CHO-B2 cells with various concentrations of test peptides and measuring the release of various PGs in the extracellular medium. The concentration-dependent effects of these peptides on total PGs, and specifically PGE2, PGF2α, and PGD2 release, were studied. Cells were grown as a monolayer in a 24-well plate (precoated with fibronectin) to confluence and subsequently serum-starved overnight before the experiment. On the day of the experiment, just before the drug was added, the wells were aspirated completely, and 990 µl basal medium and 10 µl 100× series of concentrations of the different peptide agonists were added to achieve the desired final concentrations of each compound (e.g., 0.1 nM to 10 µM). […] At the end of the incubation period, the cellular supernatants were collected and stored at −80 °C or used immediately to determine the PG content. Cell supernatants were tested for total PG levels and sub-species of PGs (PGE2, PGF2α, and PGD2) using specific competitive enzyme immunoassays (Cayman Chemical Co., Ann Arbor, MI) as directed in the manufacturer’s recommended protocols using the supplied standards and reagents. The limits of detection for various PGs were as follows: total PGs=29 pg/ml; PGE2=15 pg/ml; PGF2α=9 pg/ml; PGD2=200 pg/ml.

h-CM cells [2] = assay type: cell-based, human; settings: 1 h at 37 °C; enzyme immunoassay; mean ± SEM, 3 to 6 experiments; read-out: PGE2 production in h-CM cells (EC50)
Experimental: Measurement of prostaglandins in human ciliary muscle and Chinese hamster ovary cells expressing B2 receptors
as §1

In the case of H-RPPGFSPFR-OH [BK], the “PGD2 release in h-CM cells” value (h-CM cells [1]) is reported as “no PGD2 was detected” and the EC50 (h-CM cells [2]) is reported as 8.9 ± 0.2 nM.
